According to patent publication EP0627009B1, “MACROCYCLIC LACTONES AND A PRODUCTIVE STRAIN THEREOF” (PFIZER INC., priority 1992, dated 1993):
In brackets after ≈: the same amount, converted by molar mass.

Key:
[1] = tested on: Candida albicans; assay: anti-Candida albicans activity, agar plate dilution method with paper disk, inhibition zone; type: cell-based; settings: Concentration 40 mg/disk; paper disk 8 mm; agar medium for neomycin assay
Text: The paper disk (8 mm, Advantic) and agar medium for neomycin assay (Difco) were used in the tests. As the novel macrocyclic lactones inhibit the growth of Candida albicans, they have an antifungal activity.

[2] = tested on: human mixed lymphocyte reaction (MLR); assay: human mixed lymphocyte reaction (MLR) activity; type: cell-based; settings: read-out: MLR activity(IC50, mg/ml)
Procedure: The measurement of the human MLR activity of the macrocyclic lactones of this invention carried out by standard procedures which are described in the literature (D. P. Dubey et al., in Manual of Clinical Laboratory Immunology, 3rd Ed., pp847-858, 1986). The cytotoxicities of the macrocyclic lactones were measured by the standard procedure (T. Mosmann, J., J. Immunol. Methods, 65, 55-63, 1983). The concentration of their cytotoxicities is several ten times higher than that of their MLR activities.

- IC50 [2]: 0.01 µg/mL (≈ 0.0109 µM)
Compound: CO[C@H]1C[C@@H]2CC[C@@H](C)[C@@](O)(O2)C(=O)C(=O)N2CCCC[C@H]2C(=O)O[C@H]([C@H](C)C[C@@H]2CC[C@@H](O)[C@H](OC)C2)CC(=O)[C@H](C)/C=C(\C)[C@@H](O)[C@@H](OC)C(=O)[C@H](C)C[C@H](C)/C=C/C=C/C=C/1C [Rapamycin, rapamycin]
- The diameter of inhibition zone (mm) [1]: 25 mm
